# ± gives the expanded uncertainty stated by the source.
# What was measured:
# [1] = xn = mol fraction of the nth substance listed; conditions: 101 kPa, Liquid; for speed of sound: Pulse-echo method
# [2] = refractive index (Na D-line) (dimensionless); xn = mol fraction of the nth substance listed; conditions: 101 kPa, Liquid, Standard Abbe refractometry
compound,measurement,setting,value
C1CCCCC1 [cyclohexane] + Cc1cccc(C)c1,speed of sound,"[1]; 298.15 K, x1 = 1",1255 ± 2 m/s
same,mass density,"[1]; 298.15 K, x1 = 1",773.9 ± 0.5 kg/m3
same,speed of sound,"[1]; 313.15 K, x1 = 1",1182 ± 2 m/s
same,mass density,"[1]; 313.15 K, x1 = 1",759.59 ± 0.5 kg/m3
same,refractive index,"[2]; 298.15 K, x1 = 1",1.4236 ± 0.00064
same,refractive index,"[2]; 313.15 K, x1 = 1",1.41516 ± 0.00064
"Cc1cccc(C)c1 [1,3-dimethylbenzene] + CC1CCCCC1",speed of sound,"[1]; 298.15 K, x2 = 0",1321 ± 2 m/s
same,speed of sound,"[1]; 298.15 K, x2 = 0.0514",1313 ± 2 m/s
same,speed of sound,"[1]; 298.15 K, x2 = 0.0975",1307 ± 2 m/s
same,speed of sound,"[1]; 298.15 K, x2 = 0.159",1298 ± 2 m/s
same,speed of sound,"[1]; 298.15 K, x2 = 0.2977",1281 ± 2 m/s
same,speed of sound,"[1]; 298.15 K, x2 = 0.399",1269 ± 2 m/s
same,speed of sound,"[1]; 298.15 K, x2 = 0.4954",1258 ± 2 m/s
same,speed of sound,"[1]; 298.15 K, x2 = 0.5965",1248 ± 2 m/s
same,speed of sound,"[1]; 298.15 K, x2 = 0.6974",1238 ± 2 m/s
same,speed of sound,"[1]; 298.15 K, x2 = 0.7948",1230 ± 2 m/s
same,speed of sound,"[1]; 298.15 K, x2 = 0.8933",1222 ± 2 m/s
same,speed of sound,"[1]; 298.15 K, x2 = 0.9495",1218 ± 2 m/s
same,mass density,"[1]; 298.15 K, x2 = 0",859.8 ± 0.5 kg/m3
same,mass density,"[1]; 298.15 K, x2 = 0.0514",854.4 ± 0.5 kg/m3
same,mass density,"[1]; 298.15 K, x2 = 0.0975",849.6 ± 0.5 kg/m3
same,mass density,"[1]; 298.15 K, x2 = 0.159",843.2 ± 0.5 kg/m3
same,mass density,"[1]; 298.15 K, x2 = 0.2977",829.1 ± 0.5 kg/m3
same,mass density,"[1]; 298.15 K, x2 = 0.399",819.1 ± 0.5 kg/m3
same,mass density,"[1]; 298.15 K, x2 = 0.4954",809.7 ± 0.6 kg/m3
same,mass density,"[1]; 298.15 K, x2 = 0.5965",800.2 ± 0.6 kg/m3
same,mass density,"[1]; 298.15 K, x2 = 0.6974",791 ± 0.6 kg/m3
same,mass density,"[1]; 298.15 K, x2 = 0.7948",782.3 ± 0.6 kg/m3
same,mass density,"[1]; 298.15 K, x2 = 0.8933",773.8 ± 0.6 kg/m3
same,mass density,"[1]; 298.15 K, x2 = 0.9495",769.1 ± 0.6 kg/m3
same,speed of sound,"[1]; 313.15 K, x2 = 0",1259 ± 2 m/s
same,speed of sound,"[1]; 313.15 K, x2 = 0.0457",1252 ± 2 m/s
same,speed of sound,"[1]; 313.15 K, x2 = 0.0933",1246 ± 2 m/s
same,speed of sound,"[1]; 313.15 K, x2 = 0.1938",1232 ± 2 m/s
same,speed of sound,"[1]; 313.15 K, x2 = 0.2886",1219 ± 2 m/s
same,speed of sound,"[1]; 313.15 K, x2 = 0.3966",1206 ± 2 m/s
same,speed of sound,"[1]; 313.15 K, x2 = 0.5077",1194 ± 2 m/s
same,speed of sound,"[1]; 313.15 K, x2 = 0.595",1184 ± 2 m/s
same,speed of sound,"[1]; 313.15 K, x2 = 0.6933",1175 ± 2 m/s
same,speed of sound,"[1]; 313.15 K, x2 = 0.7987",1165 ± 2 m/s
same,speed of sound,"[1]; 313.15 K, x2 = 0.8973",1157 ± 2 m/s
same,speed of sound,"[1]; 313.15 K, x2 = 0.9504",1153 ± 2 m/s
same,mass density,"[1]; 313.15 K, x2 = 0",846.9 ± 0.5 kg/m3
same,mass density,"[1]; 313.15 K, x2 = 0.0457",842.1 ± 0.5 kg/m3
same,mass density,"[1]; 313.15 K, x2 = 0.0933",837.1 ± 0.5 kg/m3
same,mass density,"[1]; 313.15 K, x2 = 0.1938",826.7 ± 0.5 kg/m3
same,mass density,"[1]; 313.15 K, x2 = 0.2886",817 ± 0.5 kg/m3
same,mass density,"[1]; 313.15 K, x2 = 0.3966",806.3 ± 0.6 kg/m3
same,mass density,"[1]; 313.15 K, x2 = 0.5077",795.5 ± 0.6 kg/m3
same,mass density,"[1]; 313.15 K, x2 = 0.595",787.3 ± 0.6 kg/m3
same,mass density,"[1]; 313.15 K, x2 = 0.6933",778.3 ± 0.6 kg/m3
same,mass density,"[1]; 313.15 K, x2 = 0.7987",768.8 ± 0.6 kg/m3
same,mass density,"[1]; 313.15 K, x2 = 0.8973",760.3 ± 0.6 kg/m3
same,mass density,"[1]; 313.15 K, x2 = 0.9504",756.1 ± 0.6 kg/m3
same,refractive index,"[2]; 298.15 K, x2 = 0",1.49466 ± 0.00066
same,refractive index,"[2]; 298.15 K, x2 = 0.0514",1.49046 ± 0.0007
same,refractive index,"[2]; 298.15 K, x2 = 0.0975",1.4867 ± 0.0007
same,refractive index,"[2]; 298.15 K, x2 = 0.159",1.48174 ± 0.0007
same,refractive index,"[2]; 298.15 K, x2 = 0.2977",1.47072 ± 0.0007
same,refractive index,"[2]; 298.15 K, x2 = 0.399",1.46292 ± 0.0007
same,refractive index,"[2]; 298.15 K, x2 = 0.4954",1.45565 ± 0.00071
same,refractive index,"[2]; 298.15 K, x2 = 0.5965",1.44827 ± 0.0007
same,refractive index,"[2]; 298.15 K, x2 = 0.6974",1.44107 ± 0.0007
same,refractive index,"[2]; 298.15 K, x2 = 0.7948",1.4343 ± 0.0007
same,refractive index,"[2]; 298.15 K, x2 = 0.8933",1.42759 ± 0.0007
same,refractive index,"[2]; 298.15 K, x2 = 0.9495",1.42388 ± 0.0007
same,refractive index,"[2]; 313.15 K, x2 = 0",1.48653 ± 0.00066
same,refractive index,"[2]; 313.15 K, x2 = 0.0457",1.4829 ± 0.0007
same,refractive index,"[2]; 313.15 K, x2 = 0.0933",1.47908 ± 0.0007
same,refractive index,"[2]; 313.15 K, x2 = 0.1938",1.47103 ± 0.0007
same,refractive index,"[2]; 313.15 K, x2 = 0.2886",1.46361 ± 0.0007
same,refractive index,"[2]; 313.15 K, x2 = 0.3966",1.45534 ± 0.0007
same,refractive index,"[2]; 313.15 K, x2 = 0.5077",1.44702 ± 0.00071
same,refractive index,"[2]; 313.15 K, x2 = 0.595",1.44063 ± 0.0007
same,refractive index,"[2]; 313.15 K, x2 = 0.6933",1.43362 ± 0.0007
same,refractive index,"[2]; 313.15 K, x2 = 0.7987",1.42615 ± 0.0007
same,refractive index,"[2]; 313.15 K, x2 = 0.8973",1.41945 ± 0.0007
same,refractive index,"[2]; 313.15 K, x2 = 0.9504",1.41609 ± 0.0007

# Source: the NIST ThermoML archive (doi:10.1021/je901020a)
